# Reference: article PMC9721424, “Novel N-methylsulfonyl-indole derivatives: biological activity and COX-2/5-LOX inhibitory effect with improved gastro protective profile and reduced cardio vascular risks” (Journal of Enzyme Inhibition and Medicinal Chemistry, 2022)
# Biological target: T1, COX-2 (Ovis aries, UniProt P79208)
# T1 sequence (P79208 17-603): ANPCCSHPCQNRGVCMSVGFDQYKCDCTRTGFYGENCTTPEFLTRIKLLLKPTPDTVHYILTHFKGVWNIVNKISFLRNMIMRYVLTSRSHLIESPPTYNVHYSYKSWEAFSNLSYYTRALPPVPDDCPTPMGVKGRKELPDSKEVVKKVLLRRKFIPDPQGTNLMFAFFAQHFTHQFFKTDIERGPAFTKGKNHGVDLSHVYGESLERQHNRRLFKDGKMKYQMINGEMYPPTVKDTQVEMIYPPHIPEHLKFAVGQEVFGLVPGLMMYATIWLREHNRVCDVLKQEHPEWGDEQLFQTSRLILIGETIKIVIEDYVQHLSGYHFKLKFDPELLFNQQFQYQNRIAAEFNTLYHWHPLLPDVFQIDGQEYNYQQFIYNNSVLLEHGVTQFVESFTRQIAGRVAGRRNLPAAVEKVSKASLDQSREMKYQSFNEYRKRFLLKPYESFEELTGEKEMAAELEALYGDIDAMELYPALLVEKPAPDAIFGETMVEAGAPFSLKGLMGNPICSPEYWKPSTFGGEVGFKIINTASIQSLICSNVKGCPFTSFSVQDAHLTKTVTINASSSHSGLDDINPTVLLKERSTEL
# Assay: COX-2 inhibition, enzyme immune assay (EIA) kit
# Type: biochemical, ovine
# Conditions: COX-2 selectivity index
row,Structure (SMILES),S.I (IC50 COX-1/IC50 COX-2)
1,"Cc1ccc(NC(=S)N/N=C/c2cn(S(C)(=O)=O)c3ccccc23)cc1 [Compound 4d, (E)-2{[1-(methylsulfonyl)-1H-indol-3yl]methylene}-N-(p-tolyl)hydrazinecarbothioamide]",2.38

# Same assay, conditions: lab report, COX1/COX2
row,Structure (SMILES),SI
1,"Cc1ccc(NC(=S)N/N=C/c2cn(S(C)(=O)=O)c3ccccc23)cc1 [Compound 4d, (E)-2{[1-(methylsulfonyl)-1H-indol-3yl]methylene}-N-(p-tolyl)hydrazinecarbothioamide]",2.375

# System: TNF-α in RAW264.7 macrophage cells
# Assay: In vitro measurement of TNF-α in RAW264.7 macrophage cells (RT-qPCR)
# Type: cell-based
# Conditions: not given
# Source text: Both Lipopolysaccharides (LPS) and hispidin were purchased from Sigma (Sigma-Aldrich, St. Louis, MO, USA)[40]. The foetal bovine serum (FBS) and Dulbecco’s modified Eagle’s medium (DMEM) were purchased from Hyclone (General Electric Healthcare Life Sciences, Mississauga, Canada), penicillin streptomycin (P/S) was purchased from Solarbio (Solarbio life sciences, Beijing, P. R. China). Results of all in vitro anti-inflammatory screening were obtained from the confirmatory diagnostic unit, VACSERA, Egypt.
# DMEM was used to cultivate the macrophage cells RAW264.7 (Shanghai BOGO Industrial Co., Ltd., Shanghai, China), and supplemented with 10% FBS and 1% P/S (100 U/ml and […], respectively). […] They were treated with various concentrations of hispidin, then with 1 μg/ml LPS for the indicated time.
# PBS (1 ml/well) was used to wash the cells in 24-well plates. […] For the experiments, CL Buffer included MgCl2 (M1028; Sigma) or RNasin Plus RNase Inhibitor (N2615; Promega). Before use, both Bio-Rad SPR and CL buffer were equilibrated to room temperature. […] Carefully, the resulting lysates were collected and either analysed immediately or stored frozen ([…]).
# RT-qPCR analysis was performed in one-step SYBR Green RT-qPCR. […] A CFX96 real-time PCR instrument (Bio-Rad) was used under the following protocol: 50uC for 10 min, 95uC for 5 min, 95uC for 10 s/61uC for 15 s/72uC for 30 s.
# Total RNA purified from cells was used as an RT-qPCR quantification standard.
row,Structure (SMILES),TNF-α fold change
1,"Cc1ccc(NC(=S)N/N=C/c2cn(S(C)(=O)=O)c3ccccc23)cc1 [Compound 4d, (E)-2{[1-(methylsulfonyl)-1H-indol-3yl]methylene}-N-(p-tolyl)hydrazinecarbothioamide]",0.19

# System: not given
# Assay: not given
# Conditions: not given
row,Structure (SMILES),melting point
1,"Cc1ccc(NC(=S)N/N=C/c2cn(S(C)(=O)=O)c3ccccc23)cc1 [Compound 4d, (E)-2{[1-(methylsulfonyl)-1H-indol-3yl]methylene}-N-(p-tolyl)hydrazinecarbothioamide]",237 to 239 °C

# System: not listed separately
# Assay: DPPH free radical assay
# Type: biochemical
# Conditions: 540 nm, 30 min, relative to Trolox
# Method: Preparation of samples was occurred at the following concentrations: Samples 3a, 4a, 5b, 5d and 5e at final concentrations of 0.5 mg/ml in methanol: DMSO 9:1 v/v. Samples 4b and 4d at final concentrations 0.025 mg/ml in methanol: DMSO 9:1 v/v, sample 5a at final concentrations 0.25 mg/ml in methanol: DMSO 9:1 v/v, Sample 4c, 5c and 4e at final concentrations 0.05 mg/ml in methanol: DMSO 9:1 v/v, sample 3b at final concentration 0.75 mg/ml methanol: DMSO 9:1 v/v. A stock solution of 100 µM concentration of Trolox, a standard used in this experiment, was prepared in methanol from which seven concentrations were prepared, including 50, 40, 30, 20, 15, 10 and 5 µM.
# The DPPH (2,2-diphenyl-1-picryl-hydrazyl-hydrate) free radical assay was carried out according to the method of Boly et al. 2016[39]. Briefly, freshly prepared DPPH reagent (100 µl, 0.1% in methanol) was added to 100 µl of the sample on 96 well plates (n = 6). The reaction was incubated at room temp for 30 min in the dark. After completion of the incubation time, the reduction in DPPH colour intensity was measured at 540 nm. Data obtained was represented as means ± SD, according to the following equation, percentage inhibition = [(Average absorbance of blank – average absorbance of the test)/(Average absorbance of blank)] *100. The results were recorded using a microplate reader, FluoStar Omega.
# Microsoft Excel® was used to analyse the obtained results. The IC50 values were calculated using Graph pad Prism 6® by converting the concentrations to their logarithmic value and selecting the non-linear inhibitor regression equation (log (inhibitor) vs. normalised response – variable slope equation). The methods used and the final test report (R-SO7320) were obtained from Nawah Scientific.
row,Structure (SMILES),DPPH test results (µM trolox equivalent/ 1mg sample ± SD)
1,"Cc1ccc(NC(=S)N/N=C/c2cn(S(C)(=O)=O)c3ccccc23)cc1 [Compound 4d, (E)-2{[1-(methylsulfonyl)-1H-indol-3yl]methylene}-N-(p-tolyl)hydrazinecarbothioamide]",389.82 ± 19.25 µM trolox equivalent/ 1mg sample

# Same assay, conditions: 540 nm, relative to Trolox; values in text
row,Structure (SMILES),DPPH anti-oxidant activity
1,"Cc1ccc(NC(=S)N/N=C/c2cn(S(C)(=O)=O)c3ccccc23)cc1 [Compound 4d, (E)-2{[1-(methylsulfonyl)-1H-indol-3yl]methylene}-N-(p-tolyl)hydrazinecarbothioamide]",389.82 µM Trolox equivalent/mg

# Biological target: T2, ovine COX-1 (Ovis aries, UniProt P05979)
# T2 sequence (P05979 25-600): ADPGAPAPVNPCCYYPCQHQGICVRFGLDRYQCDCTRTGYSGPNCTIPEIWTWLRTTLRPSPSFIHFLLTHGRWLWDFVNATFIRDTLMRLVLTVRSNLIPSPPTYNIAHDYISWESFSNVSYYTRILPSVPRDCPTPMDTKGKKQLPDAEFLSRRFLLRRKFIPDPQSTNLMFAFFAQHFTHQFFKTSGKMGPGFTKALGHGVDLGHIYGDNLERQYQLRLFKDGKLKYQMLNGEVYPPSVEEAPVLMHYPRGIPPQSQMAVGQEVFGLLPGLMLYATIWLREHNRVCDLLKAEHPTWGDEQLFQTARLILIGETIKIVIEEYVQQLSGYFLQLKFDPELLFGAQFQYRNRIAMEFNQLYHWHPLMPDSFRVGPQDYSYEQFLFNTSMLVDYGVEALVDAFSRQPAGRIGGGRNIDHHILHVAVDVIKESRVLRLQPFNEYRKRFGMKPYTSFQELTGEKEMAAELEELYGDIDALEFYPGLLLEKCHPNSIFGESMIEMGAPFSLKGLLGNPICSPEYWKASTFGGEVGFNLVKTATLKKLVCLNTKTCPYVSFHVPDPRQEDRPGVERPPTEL
# Assay: COX-1 inhibition, enzyme immune assay (EIA) kit
# Conditions: IC50 COX-1
# Source text: Colorimetric enzyme immunoassay (EIA) kits were done to screen for the isozyme-specific inhibition.
row,Structure (SMILES),IC50
1,"Cc1ccc(NC(=S)N/N=C/c2cn(S(C)(=O)=O)c3ccccc23)cc1 [Compound 4d, (E)-2{[1-(methylsulfonyl)-1H-indol-3yl]methylene}-N-(p-tolyl)hydrazinecarbothioamide]",17.1 ± 0.49 µM

# Same assay, conditions: conc 0.1 (μM)
row,Structure (SMILES),COX1 %inh
1,"Cc1ccc(NC(=S)N/N=C/c2cn(S(C)(=O)=O)c3ccccc23)cc1 [Compound 4d, (E)-2{[1-(methylsulfonyl)-1H-indol-3yl]methylene}-N-(p-tolyl)hydrazinecarbothioamide]",7.22%

# Same assay, conditions: conc 1 (μM)
row,Structure (SMILES),COX1 %inh
1,"Cc1ccc(NC(=S)N/N=C/c2cn(S(C)(=O)=O)c3ccccc23)cc1 [Compound 4d, (E)-2{[1-(methylsulfonyl)-1H-indol-3yl]methylene}-N-(p-tolyl)hydrazinecarbothioamide]",13.4%

# Same assay, conditions: conc 10 (μM)
row,Structure (SMILES),COX1 %inh
1,"Cc1ccc(NC(=S)N/N=C/c2cn(S(C)(=O)=O)c3ccccc23)cc1 [Compound 4d, (E)-2{[1-(methylsulfonyl)-1H-indol-3yl]methylene}-N-(p-tolyl)hydrazinecarbothioamide]",36.4%

# Same assay, conditions: conc 100 (μM)
row,Structure (SMILES),COX1 %inh
1,"Cc1ccc(NC(=S)N/N=C/c2cn(S(C)(=O)=O)c3ccccc23)cc1 [Compound 4d, (E)-2{[1-(methylsulfonyl)-1H-indol-3yl]methylene}-N-(p-tolyl)hydrazinecarbothioamide]",75.8%

# Biological target: T3, 5-LOX enzyme (Homo sapiens, UniProt P09917)
# T3 construct: purchased Cayman Chemical K980-100
# T3 sequence (P09917 1-674): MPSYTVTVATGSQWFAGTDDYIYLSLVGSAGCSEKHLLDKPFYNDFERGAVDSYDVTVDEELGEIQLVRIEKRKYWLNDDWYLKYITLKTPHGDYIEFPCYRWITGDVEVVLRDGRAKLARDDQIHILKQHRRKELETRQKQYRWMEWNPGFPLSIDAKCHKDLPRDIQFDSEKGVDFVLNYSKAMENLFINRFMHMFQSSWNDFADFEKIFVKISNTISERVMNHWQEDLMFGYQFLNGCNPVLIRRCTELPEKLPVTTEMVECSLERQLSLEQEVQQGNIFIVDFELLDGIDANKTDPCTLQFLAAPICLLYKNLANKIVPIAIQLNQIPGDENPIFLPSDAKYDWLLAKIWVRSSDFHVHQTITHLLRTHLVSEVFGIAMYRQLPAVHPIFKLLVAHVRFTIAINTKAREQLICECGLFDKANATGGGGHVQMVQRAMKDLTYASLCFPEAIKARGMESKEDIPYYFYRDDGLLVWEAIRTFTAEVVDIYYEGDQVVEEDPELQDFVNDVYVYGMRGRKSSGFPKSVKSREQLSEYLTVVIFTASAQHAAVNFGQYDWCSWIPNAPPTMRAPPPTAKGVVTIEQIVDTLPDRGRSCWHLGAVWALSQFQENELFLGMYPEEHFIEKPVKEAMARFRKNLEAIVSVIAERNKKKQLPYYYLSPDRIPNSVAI
# Assay: 5-LOX inhibition, Human Lipoxygenase Inhibitor Screening Assay (EIA) kit
# Type: biochemical
# Conditions: not given
# Method: The ability of the test compounds to inhibit the 5-LOX enzyme (IC50 value, μM) was detected using the Cayman Human Lipoxygenase Inhibitor Screening Assay (EIA) kit (catalog no. K980-100, Cayman Chemical). The IC50 values of test compounds were measured in µM according to the manufacturer’s instructions and reported method.
row,Structure (SMILES),IC50
1,"Cc1ccc(NC(=S)N/N=C/c2cn(S(C)(=O)=O)c3ccccc23)cc1 [Compound 4d, (E)-2{[1-(methylsulfonyl)-1H-indol-3yl]methylene}-N-(p-tolyl)hydrazinecarbothioamide]",17.9 ± 0.95 µM

# Same assay, conditions: conc 0.1 (μM)
row,Structure (SMILES),5-LOX %inh
1,"Cc1ccc(NC(=S)N/N=C/c2cn(S(C)(=O)=O)c3ccccc23)cc1 [Compound 4d, (E)-2{[1-(methylsulfonyl)-1H-indol-3yl]methylene}-N-(p-tolyl)hydrazinecarbothioamide]",4.88%

# Same assay, conditions: conc 1 (μM)
row,Structure (SMILES),5-LOX %inh
1,"Cc1ccc(NC(=S)N/N=C/c2cn(S(C)(=O)=O)c3ccccc23)cc1 [Compound 4d, (E)-2{[1-(methylsulfonyl)-1H-indol-3yl]methylene}-N-(p-tolyl)hydrazinecarbothioamide]",12.5%

# Same assay, conditions: conc 10 (μM)
row,Structure (SMILES),5-LOX %inh
1,"Cc1ccc(NC(=S)N/N=C/c2cn(S(C)(=O)=O)c3ccccc23)cc1 [Compound 4d, (E)-2{[1-(methylsulfonyl)-1H-indol-3yl]methylene}-N-(p-tolyl)hydrazinecarbothioamide]",33.7%

# Same assay, conditions: conc 100 (μM)
row,Structure (SMILES),5-LOX %inh
1,"Cc1ccc(NC(=S)N/N=C/c2cn(S(C)(=O)=O)c3ccccc23)cc1 [Compound 4d, (E)-2{[1-(methylsulfonyl)-1H-indol-3yl]methylene}-N-(p-tolyl)hydrazinecarbothioamide]",77.2%
